The source of these data is patent US8747810B2, “Compositions and methods for imaging tissues, organs and tumors” (President and Fellows of Harvard College, priority 2009, dated 2014).

Read-outs that look alike come from different tables or passages of the source.

The subject of data set [1] is subcutaneous B16F10 melanoma tumor. Kind of data set: Biodistribution of 99mTc complexes in mice bearing subcutaneous B16F10 melanoma tumor. In kind it is in vivo. Particulars: for tumor uptake and retention (in words): mouse, in vivo. From the text:
Biodistribution of 99 mTc complexes in mice bearing subcutaneous B16F10 melanoma tumor was studied for complexes Tc-1-Tc-6.

A further data set deals with T1, 5HT1A receptor (Rattus norvegicus, UniProt P19327).
T1 construct: hippocampal homogenates that were prepared from Sprague Dawley rat hippocampus; from tissue; host or cells: rat (Sprague-Dawley) hippocampus membranes
T1 sequence (P19327 1-422): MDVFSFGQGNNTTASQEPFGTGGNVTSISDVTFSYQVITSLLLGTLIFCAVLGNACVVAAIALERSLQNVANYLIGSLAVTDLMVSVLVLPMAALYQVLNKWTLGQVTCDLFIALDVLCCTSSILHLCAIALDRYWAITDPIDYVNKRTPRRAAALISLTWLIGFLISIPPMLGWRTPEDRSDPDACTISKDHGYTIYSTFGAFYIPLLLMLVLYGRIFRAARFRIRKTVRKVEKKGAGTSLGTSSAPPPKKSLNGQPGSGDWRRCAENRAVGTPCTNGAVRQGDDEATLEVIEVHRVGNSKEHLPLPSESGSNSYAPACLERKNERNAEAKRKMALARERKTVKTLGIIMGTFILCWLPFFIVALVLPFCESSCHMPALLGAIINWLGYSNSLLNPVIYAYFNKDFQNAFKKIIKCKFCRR
Kind of data set: 5HT1A receptor competition binding assay, [3H]-8-OH-DPAT, rat hippocampus. On the procedure:
The in vitro 5HT1A binding affinities of rhenium coordinated complexes were determined in a competition assay using rat hippocampus and high-affinity 5HT1A-ligand [^3H]-8-OH-DPAT (135 Ci/mmol, NEN Life Science Inc., Cambridge, Mass.). See, Brain Res. 1995, 673, 217-225.
Male Sprague-Dawley rats (weighing 150-170 g) were sacrificed using anesthesia agent isoflurane. The brains were rapidly removed, and hippocampus, frontal cortex, hypothalamus, and striatum were hand-dissected on ice and stored at −70° C. Tissue was thawed at room temperature and homogenized using a Brinkmann Polytron tissue disrupter in 50 volumes (wt/vol) of ice-cold 50 mM Tris-HCl buffer (pH 7.4). The suspension was centrifuged twice at 27,000 g for 20 min at 4° C. The membrane pellets were resuspended in 50 volumes of (wt/vol) Tris-HCl buffer and incubated at 37° C. for 20 min in a water bath, before a final centrifugation step (27,000 g; 20 min; 4° C.). The final tissue pellets were stored at −70° C. until assayed.
Twelve concentrations of the nonradioactive rhenium complexes ranging from 1×10^−11 to 1×10^−4 and protein samples (0.15 mg of membrane protein) were incubated with 1.5 nM [^3H]-8-OH-DPAT in a total volume of 0.25 mL of Tris-HCl (50 mM, pH 7.4, 10 mM MgSO4). Incubations were carried out for 60 min at 25° C. All assays were terminated by dilution with 5 mL of ice-cold Tris-HCl (10 mM), pH 7.4, and solution were filtered through glass-fiber filters (Whatman GF/F; presoaked in 0.5% polyethyleneimine for 30 min at 25° C.). Filters were then washed three times with 5 mL of ice-cold Tris-HCl (50 mM, pH 7.4), and counted in Hionic-Fluor cocktail (Packard, Groningen, the Netherlands). The corresponding IC50 values were determined with Origin 6.0 software (OriginLab, Northampton, Mass.) and were used for the calculation of the apparent Ki values with the Cheng-Prusoff equation. See, Biochem. Pharmacol. 1973, 22, 3099-3108.
Rhenium complexes were synthesized by the reaction of [ReBr(CO)3(C4H8O)]2 with the final ligands in acetonitrile at room temperature. The in vitro 5-HT1A binding affinities of complexes Re(CO)3-L1-L9 were determined in competitive receptor binding assay using hippocampal homogenates that were prepared from Sprague Dawley rat hippocampus and the high-affinity [^3H]-8-OH-DPAT as the 5HT1A specific ligand.
The in vitro affinity of Re(CO)3-L complexes for the 5-HT1A receptors were assessed by their ability to compete with the high affinity 5HT1A radioligand [^3H]-8-OH-DPAT.

In a further data set the target is T2, σ1 receptor (Cavia porcellus, UniProt Q60492).
T2 construct: The membranes were prepared from guinea pig brain (minus cerebellum) as described above; from tissue; host or cells: guinea pig brain (minus cerebellum) membranes
Put plainly: σ1 receptor competition binding assay, [3H]-(+)-pentazocine. Also on record: species or system guinea pig. On the procedure:
[…] See, Mol. Neuropharmacol. 1993, 3, 117-126.
The membranes were prepared from guinea pig brain (minus cerebellum) as described above and stored at −70° C. Twelve concentrations of the nonradioactive rhenium complexes ranging from 1×10^−11 to 1×10^−3 and protein samples (0.15 mg of membrane protein) were incubated with 5 nM [^3H]-(+)-pentazocine in a total volume of 0.25 mL of Tris-HCl (50 mM, pH 8.0). Incubations were carried out for 120 min at 25° C. All assays were terminated by dilution with 5 mL of ice-cold Tris-HCl (10 mM), pH 8.0, and solution were filtered through glass-fiber filters (Whatman GF/F; presoaked in 0.5% polyethyleneimine for 30 min at 25° C.). Filters were then washed three times with 5 mL of ice-cold Tris-HCl (50 mM, pH 8.0), and counted in Hionic-Fluor cocktail (Packard, Groningen, the Netherlands). The corresponding IC50 values were determined with Origin 6.0 software (OriginLab, Northampton, Mass.) and were used for the calculation of the apparent Ki values with the Cheng-Prusoff equation. See, Biochem. Pharmacol. 1973, 22, 3099-3108.

A further data set has as its target T3, σ2 receptor (Rattus norvegicus, UniProt Q5U3Y7).
T3 construct: Rat liver membranes were prepared from male Sprague-Dawley rat livers as previously described; from tissue; host or cells: rat (Sprague-Dawley) liver membranes
T3 sequence (Q5U3Y7 1-176): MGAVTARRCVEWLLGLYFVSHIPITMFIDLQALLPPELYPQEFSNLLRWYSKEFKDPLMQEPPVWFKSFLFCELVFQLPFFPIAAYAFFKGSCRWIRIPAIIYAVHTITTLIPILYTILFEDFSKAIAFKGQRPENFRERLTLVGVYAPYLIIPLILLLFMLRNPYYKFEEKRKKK
Put plainly: σ2 receptor competition binding assay, [3H]-DTG, rat liver membranes. On the procedure:
Rat liver membranes were prepared from male Sprague-Dawley rat livers as previously described (Eur. J. Pharmacol.-Mol. Pharmacol. Sect. 1994, 268, 9-18). The in vitro σ2 receptor binding affinities of rhenium coordinated complexes were determined in a competition assay using rat livers and [^3H]-DTG (31 Ci/mmol, NEN Life Science Inc., Cambridge, Mass.) as radioligand in the presence of 10 μM 1-pyrrolidinylethyl 3,4-dichlorophenylacetate oxalate (ACT915 oxalate) to mask σ1 receptors (Bioorg. & Med. Chem. Lett. 2000, 10, 17-18). Competition assays were performed with twelve concentrations of the nonradioactive rhenium complexes ranging from […] to 1×10^−3 and protein samples (0.15 mg of membrane protein) in a total volume of 0.25 mL of Tris-HCl (50 mM, pH 8.0) for 120 min at 25° C. All other manipulations and data analysis were performed as described vide supra for the σ1—receptor assays.

A further data set concerns the target D2 receptors (Homo sapiens, UniProt P14416). Put plainly: D2 receptor affinity. In kind it is binding.
[2] abbreviates: quantity not named in table head, methods calculate apparent Ki (Cheng-Prusoff), read-out: 5HT1A.
Setting [3] is: quantity not named in table head, methods calculate apparent Ki (Cheng-Prusoff), read-out: σ-1.
Setting [4] is: quantity not named in table head, methods calculate apparent Ki (Cheng-Prusoff), read-out: σ-2.

T2 sequence (Q60492 whole entry): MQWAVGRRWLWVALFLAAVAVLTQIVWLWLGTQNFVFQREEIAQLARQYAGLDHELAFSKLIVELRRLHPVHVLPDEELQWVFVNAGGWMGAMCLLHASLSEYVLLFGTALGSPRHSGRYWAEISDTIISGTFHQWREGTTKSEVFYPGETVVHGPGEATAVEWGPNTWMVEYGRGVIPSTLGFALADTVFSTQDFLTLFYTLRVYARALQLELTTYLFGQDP
D2 receptors, sequence (P14416 whole entry): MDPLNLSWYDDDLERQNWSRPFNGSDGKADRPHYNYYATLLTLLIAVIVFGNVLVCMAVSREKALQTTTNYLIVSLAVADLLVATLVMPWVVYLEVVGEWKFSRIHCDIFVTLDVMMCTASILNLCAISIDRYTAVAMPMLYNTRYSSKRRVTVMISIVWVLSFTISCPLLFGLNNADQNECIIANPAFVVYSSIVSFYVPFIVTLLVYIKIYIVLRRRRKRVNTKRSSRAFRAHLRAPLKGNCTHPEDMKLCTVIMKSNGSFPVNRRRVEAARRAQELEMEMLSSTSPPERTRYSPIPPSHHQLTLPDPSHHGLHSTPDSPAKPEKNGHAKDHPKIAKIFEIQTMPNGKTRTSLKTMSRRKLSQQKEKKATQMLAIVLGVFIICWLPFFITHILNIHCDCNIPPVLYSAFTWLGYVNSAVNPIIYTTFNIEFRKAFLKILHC

As to `[99Tc][O]c1ccccc1CN(CCN1CCCCC1)Cc1ccccn1.[C-]#[O+].[C-]#[O+].[C-]#[O+]` [99 mTc-3], the “tumor uptake and retention (in words)” value in data set [1] was “increase in tumor retention over time”.
Same read-out and setting: then `[99Tc][O]c1ccccc1CN(CCCCCCN1CCCCC1)Cc1ccccn1.[C-]#[O+].[C-]#[O+].[C-]#[O+]` [Tc-5], with “increase in tumor retention over time”.
Turning to `CCCN(CCCCCCN1CC[S][Re]2(=[O])[S]CC[N]2C(=O)C1)C1CCc2c(cccc2OC)C1` (stereo not shown) [Re-47], the values for the Ki on 5HT1A receptor (setting [2]), on σ1 receptor (setting [3]) and at σ2 receptor (setting [4]) were 15.4 ± 4.06 nM, 64.3 ± 1.27 nM and 244 ± 8.56 nM, respectively.
Consider `C[N+]1(C)CC[N+]2(CCCCCCN3CCC(c4ccccc4)CC3)Cc3ccccc3[O][Re-2]12(=[C]=O)(=[C]=O)=[C]=O` (stereo not shown) [Re-L16b], for which the Ki at 5HT1A receptor (setting [2]) was 439 ± 121 nM; at σ1 receptor (setting [3]) it was 9.12 ± 0.14 nM; on σ2 receptor (setting [4]) it was 6420 ± 387 nM.
`CCN(CC)CC[N+]12CC[N+](CC)(CC)[99Tc-5]1([C]#[O+])([C]#[O+])([C]#[O+])[O]c1ccccc1C2` (stereo not shown) [99 mTc-6]: in data set [1], the “tumor uptake and retention (in words)” value is “poor tumor uptake and retention”.
As for `CCN(CC)CCN(Cc1ccccn1)Cc1ccccc1[O][99Tc].[C-]#[O+].[C-]#[O+].[C-]#[O+]` [99 mTc-2], the tumor uptake in data set [1] (1 h postinjection) turned out to be 3.2 % ID/g. In data set [1] (share of tumor uptake retained over 6 h), the “tumor retention over a 6 h period” value worked out at 65%.
For the compound `[99Tc][O]c1ccccc1CN(CCCN1CCCCC1)Cc1ccccn1.[C-]#[O+].[C-]#[O+].[C-]#[O+]` [Tc-4], in data set [1], the “tumor uptake and retention (in words)” value is listed as “increase in tumor retention over time”.
As for `CCCN(CCCCCC[N+]12CC[S][Re-]13(=[O])[S]CC[N]3C(=O)C2)C1CCc2cccc(OC)c2C1` (stereo not shown) [Re-45], the Ki at 5HT1A receptor came to 1.21 ± 0.13 nM; at σ1 receptor it was 41 ± 3.58 nM; on σ2 receptor, 442 ± 106 nM; at D2 receptors, 1200 nM.
